Assay results as given in US5618812A, “Benzodiazepine derivatives” (Merck Sharp & Dohme, Ltd., priority 1992, dated 1997).
Structures can show the parent of a compound that is named as a salt. Where two headings read alike, the source gives them in different places.

Tests used:
[1] = molecular target: T1, CCK-B (Cavia porcellus, UniProt H0VZC5); test: displacement of specific 125I-CCK from guinea pig brain (CCK-B receptor binding)
T1 construct: guinea pig brain (CCK-B); from tissue; host or cells: guinea pig brain
T1 sequence (H0VZC5 1-426): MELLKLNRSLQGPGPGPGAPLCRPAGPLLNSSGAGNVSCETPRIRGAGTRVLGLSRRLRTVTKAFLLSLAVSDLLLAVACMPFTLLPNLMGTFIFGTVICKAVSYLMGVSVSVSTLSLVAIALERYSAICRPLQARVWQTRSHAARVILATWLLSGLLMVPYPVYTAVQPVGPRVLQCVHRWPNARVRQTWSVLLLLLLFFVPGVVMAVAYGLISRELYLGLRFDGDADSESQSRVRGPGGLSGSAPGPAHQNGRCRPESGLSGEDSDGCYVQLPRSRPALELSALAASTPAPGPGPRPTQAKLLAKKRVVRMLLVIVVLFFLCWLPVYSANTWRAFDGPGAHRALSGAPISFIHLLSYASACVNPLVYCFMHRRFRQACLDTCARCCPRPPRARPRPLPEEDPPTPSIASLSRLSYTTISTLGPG
Method: (§1) The CCK-A and CCK-B antagonising activity of the compounds described herein was evaluated using the assays described in published European patent application no. 0514133. The method essentially involves determining the concentration of the test compound required to displace 50% of the specific ^125 I-CCK from rat pancreas (CCK-A) or guinea pig brain (CCK-B). The data in Table 1 were obtained for compounds of the Examples.

[2] = molecular target: T2, CCK-A (Rattus norvegicus, UniProt P30551); test: biochemical; assay type: binding
T2 sequence (P30551 1-444): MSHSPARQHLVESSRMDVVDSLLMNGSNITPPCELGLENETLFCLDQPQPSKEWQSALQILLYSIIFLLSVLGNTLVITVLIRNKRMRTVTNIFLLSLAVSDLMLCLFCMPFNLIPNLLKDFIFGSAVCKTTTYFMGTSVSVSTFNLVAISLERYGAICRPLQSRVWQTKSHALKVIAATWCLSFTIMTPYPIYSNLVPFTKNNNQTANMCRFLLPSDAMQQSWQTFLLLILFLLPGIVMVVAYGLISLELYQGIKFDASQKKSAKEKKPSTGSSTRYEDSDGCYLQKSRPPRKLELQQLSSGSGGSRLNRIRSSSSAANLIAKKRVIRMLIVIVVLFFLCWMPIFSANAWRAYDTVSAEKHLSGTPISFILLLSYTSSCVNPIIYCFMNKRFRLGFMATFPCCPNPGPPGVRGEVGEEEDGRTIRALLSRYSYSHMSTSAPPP
Method: as §1, with “(CCK-B).” for “(CCK-B). The data in Table 1 were obtained for compounds of the Examples.”

[3] = read-out: CCK RECEPTOR BINDING RESULTS IC50 125I-CCK Brain
[4] = rat pancreas (CCK-A), 125I-CCK, read-out: CCK RECEPTOR BINDING RESULTS IC50 125I-CCK Pancreas
[5] = CCK RECEPTOR BINDING RESULTS IC50 125I-CCK Brain
[6] = CCK RECEPTOR BINDING RESULTS IC50 125I-CCK Pancreas, rat pancreas (CCK-A), 125I-CCK

| IC50 [1, 3] [nM] | IC50 [2, 4] [nM] | IC50 ([2]; read-out: CCK RECEPTOR BINDING RESULTS IC50 125I-CCK Pancreas) [nM] | SMILES | IC50 [1, 5] [nM] | IC50 [2, 6] [nM] |
| --- | --- | --- | --- | --- | --- |
| 0.21 | 8.97 |  | Cc1cccc(NC(=O)NC2N=C(N3CCC(C)(C)CC3)c3ccccc3N(C)C2=O)c1 (racemic) [Example 9, N-[3(R,S)-2,3-Dihydro-5-(4,4-dimethylpiperidin-1-yl)-1-methyl-2-oxo-1H-1,4-benzodiazepin-3-yl]N'-[3-methylphenyl]urea] |  |  |
| 46.9 | 314 |  | CCCN(CCC)C1=NC(NC(=O)Nc2cccc(C)c2)C(=O)N(C)c2ccccc21 (racemic) [Example 75, N-[3(R,S)-5-(N,N-Di-^npropylamino)-2,3-dihydro-1-methyl-2-oxo-1H-1,4-benzodiazepin-3-yl]-N-[3-methylphenyl]urea] |  |  |
| 36.3 |  | 8.8 | Cc1cccc(NC(=O)NC2N=C(N3CC4CCC(C4)C3)c3ccccc3N(C)C2=O)c1 (single isomer, unassigned; (+)) [Example 40, (+)-N-[5-(3-Azabicyclo[3,2,1]octan-3-yl)-2,3-dihydro-1-methyl-2-oxo-1H-1,4-benzodiazepin-3-yl]-N'-[3-methylphenyl]urea Hydrochloride] |  |  |
| 3.12 | 760 |  | CCN(C1=NC(NC(=O)Nc2cccc(C)c2)C(=O)N(C)c2ccccc21)C1CCCC1 (racemic) [Example 76, N-[3(R,S)-5-(N-Cyclopentyl-N-ethylamino)-2,3-dihydro-1-methyl-2-oxo-1H-1,4-benzodiazepin-3-yl]-N'-[3-methylphenyl]urea] |  |  |
| 2.56 | 186 |  | CCCN1C(=O)C(NC(=O)Nc2cccc(C)c2)N=C(N(C)C2CCCCC2)c2ccccc21 (racemic) [Example 60, N-[3(R,S)-5-(N-Cyclohexyl-N-methylamino)-2,3-dihydro-2-oxo-1-propyl-1H-1,4-benzodiazepin-3-yl]-N'-[3-methylphenyl]urea] |  |  |
|  |  |  | Cc1cc(NC(=O)NC2N=C(N3CC4CCC(CC4)C3)c3ccccc3N(C)C2=O)ccc1F (single isomer, unassigned; (+)) [Example 54, (+)-N-[5-(3-Azabicyclo[3,2,2]nonan-3-yl)-2,3-dihydro-1-methyl-2-oxo-1H-1,4-benzodiazepin-3-yl]-N'-[4-fluoro-3-methylphenyl]urea Hydrochloride] | 68 | 8.4 |
| 0.76 | 421 |  | Cc1cccc(NC(=O)NC2N=C(N3CCC(C)(C)CC3)c3ccccc3N(C)C2=O)c1 (single isomer, unassigned) [10 (enantiomer A)] |  |  |
| 0.28 | 2180 |  | CC1CCN(C2=NC(NC(=O)Nc3ccc4c(c3)CCC4)C(=O)N(C)c3ccccc32)CC1 (single isomer, unassigned; (-)) [Example 12, (-)-N-[2,3,Dihydro-1-methyl-5-(4-methylpiperidin-1-yl)-2-oxo-1H-1,4-benzodiazepin-3-yl]N'-[indan-5-yl]urea hydrochloride] |  |  |
| 1.53 | 496 |  | C[C@@H]1CCC[C@H](C)N1C1=NC(NC(=O)Nc2ccc3c(c2)CCC3)C(=O)N(C)c2ccccc21 (stereo partly drawn) [Example 13, N-[3(R,S)-2,3-Dihydro-5-(cis-2.6-dimethylpiperidin-1-yl)-1-methyl-2-oxo-1H-1,4-benzodiazepin-3-yl]N'-[indan-5-yl]urea] |  |  |
| 3.47 | 1900 |  | C[C@@H]1CCC[C@H](C)N1C1=NC(NC(=O)Nc2ccc3c(c2)CCC3)C(=O)N(C)c2ccccc21 (single isomer, unassigned) [15 (enantiomer A)] |  |  |
| 0.71 | 7.93 |  | Cc1cccc(NC(=O)NC2N=C(N3CC4CCC(C4)C3)c3ccccc3N(C)C2=O)c1 (racemic) [Example 38, N-[3(R,S)-5-(3-Azabicyclo[3,2,1]octan-3-yl)-2,3-dihydro-1-methyl-2-oxo-1H-1,4-benzodiazepin-3-yl]-N'-[3-methylphenyl]urea] |  |  |
| 32.4 | 1140 |  | Cc1cccc(NC(=O)NC2N=C(N(Cc3ccccc3)C3CCCCC3)c3ccccc3N(C)C2=O)c1 (racemic) [Example 80, N-[3(R,S)-5-(N-Benzyl-N-cyclohexylamino)-2,3-dihydro-1-methyl-2-oxo-1H-1,4-benzodiazepin-3-yl]-N'-[3-methylphenyl]urea] |  |  |
| 4.5 | 891 |  | CCN(C1=NC(NC(=O)Nc2cccc(C)c2)C(=O)N(C)c2ccccc21)C1CCCCC1 (racemic) [Example 78, N-[3(R,S)-5-(N-Cyclohexyl-N-ethylamino)-2,3-dihydro-1-methyl-2-oxo-1H-1,4-benzodiazepin-3-yl]-N'-3-methylphenyl]urea] |  |  |
| 0.22 | 2070 |  | Cc1cccc(NC(=O)NC2N=C(N(C)C3CCCCC3)c3ccccc3N(C)C2=O)c1 (single isomer, unassigned; (-)) [Example 64, (-)5-(N-Cyclohexyl-N-methylamine)-2,3-dihydro-2-oxo-1-methyl-1H-1,4-benzodiazepin-3-yl-N'-[3-methylphenyl]urea. Hydrochloride] |  |  |
|  |  |  | CN1C(=O)C(NC(=O)Nc2cccc(F)c2)N=C(N2CC3CCC(CC3)C2)c2ccccc21 (single isomer, unassigned; (+)) [Example 37, (+)-N-[5-(3-Azabicyclo[3,2,2]nonan-3-yl)-2,3-dihydro-1-methyl-2-oxo-1H-1,4-benzodiazepin-3-yl]-N'-[3-fluorophenyl]urea Hydrochloride] | 144 | 9 |
| 22 | > 3000 |  | CCCN1C(=O)C(NC(=O)Nc2cccc(C)c2)N=C(N2C[C@@H]3C[C@H]2CN3C)c2ccccc21 (stereo partly drawn) [Example 32, N-[3(R,S)-2,3-Dihydro-5-((1S,4S)-5-methyl-2,5-diazabicyclo-[2,2,1]heptan-2-yl)-2-oxo-1-propyl-1H-1,4-benzodiazepin-3-yl]-N'-[3-methylphenyl]urea] |  |  |
|  |  |  | Cc1cc(NC(=O)NC2N=C(N3CC4CCC(CC4)C3)c3ccccc3N(C)C2=O)ccc1F (single isomer, unassigned; (-)) [Example 53, (-)-N-[5-(3-Azabicyclo[3,2,2]nonan-3-yl)-2,3-dihydro-1-methyl-2-oxo-1H-1,4-benzodiazepin-3-yl]-N'-[4-fluoro-3-methylphenyl]urea Hydrochloride] | 0.18 | 3760 |
| 281 | 3.97 |  | Cc1cccc(NC(=O)NC2N=C(N3CCC(C)(C)CC3)c3ccccc3N(CC(F)(F)F)C2=O)c1 (single isomer, unassigned) [28 (enantiomer B)] |  |  |

| SMILES | IC50 [1, 3] [nM] | IC50 [2, 4] [nM] | IC50 ([2]; read-out: CCK RECEPTOR BINDING RESULTS IC50 125I-CCK Pancreas) [nM] | IC50 [1, 5] [nM] | IC50 [2, 6] [nM] |
| --- | --- | --- | --- | --- | --- |
| CN1C(=O)C(NC(=O)Nc2ccc3c(c2)CCC3)N=C(N2CC3CCC(CC3)C2)c2ccccc21 (single isomer, unassigned; (-)) [Example 41, (-)-N-[5-(3-Azabicyclo[3,2,2]nonan-3-yl)-2,3-dihydro-1-methyl-2-oxo-1H-1,4-benzodiazepin-3-yl]-N'-[5-indanyl]urea] |  | > 3000 |  | 0.37 |  |
| CN1C(=O)C(NC(=O)Nc2cccc(C(F)(F)F)c2)N=C(N2CC3CCC(CC3)C2)c2ccccc21 (single isomer, unassigned; (-)) [Example 55, (-)-N-[5-(3-Azabicyclo[3,2,2]nonan-3-yl)-2,3-dihydro-1-methyl]-2-oxo-1H-1,4-benzodiazepin-3-yl]-N'-[3-trifluoromethylphenyl]urea Hydrochloride] |  | > 3000 |  | 0.73 |  |
| CN1C(=O)C(NC(=O)Nc2cccc(I)c2)N=C(N2CC3CCC(CC3)C2)c2ccccc21 (racemic) [Example 47, N-[3(R,S)-5-(3-Azabicyclo[3,2,2]nonan-3-yl)-2,3-dihydro-1-methyl-2-oxo-1H-1,4-benzodiazepin-3-yl]-N'-[3-iodophenyl]urea] |  | 26.6 |  | 1.01 |  |
